In publication PMC4674085, “Towards Prebiotic Catalytic Amyloids Using High Throughput Screening” (PLoS ONE, 2015):

What was measured:
Assay type in all cases: physicochemical
[1] = Transmission electron microscopy (TEM) of fibrils; set-up: key: +: ﬁbrils present; −: absent in EM micrographs; conditions: uranyl acetate stain
Procedure: The samples of the amyloid library (50 mM HEPES pH 7.3 or 50 mM NaOAc pH 4) were applied directly to glow-discharged carbon-coated grids, washed and then stained with uranyl acetate. Images were recorded on a Philips CM 12 electron microscope.
(§1) Table A and associated data: Biophysical characterization of library
(§2) Sequence ThT1 CD2 FTIR3 EM4 ThT CD FTIR EM X-ray5 […]
4. (+) ﬁbrils present or (−) absent in EM micrographs. […]

[2] = Thioflavin T fluorescence (ThT); conditions: crude peptide fibrillized at 160 μM, mixed 10:1 with 50 μM ThT, ex 440 nm em 480 nm
Procedure: The samples of the amyloid library (50 mM HEPES pH 7.3 or 50 mM NaOAc pH 4) were mixed 10:1 with 50 μM ThT and the increase in fluorescence was measured in a 384-well plate in a BMG Pherastar platereader (ex: 440 nm em: 480 nm). The background signal from the peptides without ThT was subtracted from the one with the ThT present in the sample. Due to the large dynamic range of the signals among the many samples, the measurements were made at two different gain settings to ensure that all of the signals fell within the measureable range.
as §1
Sequence ThT1 CD2 FTIR3 EM4 ThT CD FTIR EM X-ray5
1. Fold increase in ThT ﬂuorescence over background. […]

[3] = Circular dichroism (CD), secondary structure of aggregates; set-up: key: β+: has minimum near 217 nm; β++: has minimum near 217 nm and a maximum near 197 nm; −: signal too weak to interpret; ?: spectra not typical of any secondary structure
Procedure: The concept of creating an amyloid library out of a peptide library is only meaningful if the vast majority of the peptides actually form amyloids in at least one of the conditions tested. To establish the validity of our amyloid library we measured circular dichroism (CD), Fourier transform infrared spectroscopy (ATR-FTIR), as well as thioflavin T (ThT) fluorescence of peptides 1–33 at pH 7.3 (50 mM HEPES) and pH 4 (50 mM NaOAc) (see interactive Table A and associated data in S1 File). Based on the analysis of the CD and ATR-FTIR spectra (shown in the interactive Table A in S1 File) all the peptides formed β-structured aggregates in at least one condition. Most of the 33 peptides induced a significant increase in ThT fluorescence in at least one condition. […] The fibrils from a selection of the active peptides were aligned and analyzed by X-ray diffraction (Figures C and D in S1 File). In each case we observed the cross-β diffraction pattern typical of amyloid fibrils, although the degree of sample alignment varied. For two samples, 14 and 27, the difference in meridional and equatorial diffraction intensities was small but easily detected in a plot of the angular dependence of the intensity (Figure D in S1 File). The conclusion that can be drawn out of the multiple analysis techniques is that the 33 peptides that comprise the library are overwhelmingly prone to form fibril-like, β-structured aggregates. The cross-β diffraction of the tested aggregates would imply that they are more specifically all amyloidogenic.
CD measurements were carried out on a Jasco J815. Samples were prepared by centrifuging the amyloid library at 25,000 g for 10 min and then removing the supernatant. The pellets were resuspended at an approximate concentration of 100 μg/ml in 10 mM HEPES pH 7.3 (for mixtures from 50 mM HEPES) or 10 mM NaOAc pH 4 (for mixtures from 50 mM NaOAc), the suspensions were then treated with an ultrasonic probe for 5 s, upon which the solutions were placed in 1 mm cuvettes, diluted as necessary to maintain the detector voltage below 600 V and scanned from 260–190 nm at 50 nm/min, 1 nm band-pass, 2 second integration, averaged over 3 repetitions.
as §1, §2
2. […]

[4] = ATR-FTIR, amide I peak of aggregates; set-up: key: indicates that no peak was observed within the typical range of stretching frequencies forβ-structure (between dashed lines at 1638 cm−1 and 1615 cm−1); conditions: air-dried pellet, crude peptide
Procedure: Samples were prepared as for the CD measurements, but instead of re-suspending the samples after centrifugation, 3 μl of H2O were added to the pellet so that it could be placed onto the diamond ATR cell of a Bruker Alpha-p ATR-FTIR spectrometer followed by air-drying before measuring the spectra. Blank subtraction was performed with an empty cell (air) and all measurements were performed without the pressure applicator.
as §1, §2
3. The peak position in amide I region is given in cm−1. […]

[5] = pH 4.0, pellet (25,000 g, 10 min) resuspended ~100 μg/ml in 10 mM NaOAc pH 4, crude peptide
[6] = pH 7.3, pellet (25,000 g, 10 min) resuspended ~100 μg/ml in 10 mM HEPES pH 7.3, crude peptide

| Substance | EM, fibrils in EM micrographs ([1]; pH 7.3, 50 mM HEPES) | ThT, fold increase in ThT fluorescence over background ([2]; pH 4.0, 50 mM NaOAc) [fold] | ThT, fold increase in ThT fluorescence over background ([2]; pH 7.3, 50 mM HEPES) [fold] | CD spectrum class [3, 5] | CD spectrum class [3, 6] | FTIR peak position in amide I region ([4]; pH 4.0 (50 mM NaOAc)) | FTIR peak position in amide I region ([4]; pH 7.3 (50 mM HEPES)) | EM, fibrils in EM micrographs ([1]; pH 4.0, 50 mM NaOAc) |
| --- | --- | --- | --- | --- | --- | --- | --- | --- |
| Ac-YVAVHVHV-NH2 [Peptide 27, Ac-YVAVHVHV-CONH2] | + | 1 | 129 | − | β+ | − | 1625 cm⁻¹ |  |
| Ac-YVDVHVDV-NH2 [Peptide 25, Ac-YVDVHVDV-CONH2] |  | 9 | 2 | β++ | − | 1623 cm⁻¹ | − | + |
| Ac-YVHVHVDV-NH2 [Peptide 21, Ac-YVHVHVDV-CONH2] | + | 1 | 133 |  | β+ | − | 1626 cm⁻¹ | + |
| Ac-YVHVHVHV-NH2 [Peptide 8, Ac-YVHVHVHV-CONH2] | + | 1 | 126 | − | β+ | − | 1627 cm⁻¹ | − |
| Ac-YVHVHVSV-NH2 [Peptide 11, Ac-YVHVHVSV-CONH2] | + | 1 | 18 | − | β++ | − | 1624 cm⁻¹ |  |
| Ac-YVSVHVHV-NH2 [Peptide 9, Ac-YVSVHVHV-CONH2] | + | 1 | 82 | − | β++ | − | 1624 cm⁻¹ |  |
